This is an account of results in patent publication US10053465B2 (Incyte Corporation, priority 2015, dated 2018).

For one experiment, the target named is Tyro3 (Homo sapiens (Human), UniProt Q06418). In words: biochemical. Particulars: read-out: Tyro3IC50.
In the next experiment the target is Phospho-Axl (Homo sapiens (Human), UniProt P30530). In words: biochemical.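 Further: test system is recombinant Axl protein that was first autophosphorylated with ATP and MgCl2.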
The target in experiment [1] is T1, c-Mer (Homo sapiens (Human), UniProt Q12866). The experiment is described as follows: biochemical.
T1 sequence (Q12866 21-999): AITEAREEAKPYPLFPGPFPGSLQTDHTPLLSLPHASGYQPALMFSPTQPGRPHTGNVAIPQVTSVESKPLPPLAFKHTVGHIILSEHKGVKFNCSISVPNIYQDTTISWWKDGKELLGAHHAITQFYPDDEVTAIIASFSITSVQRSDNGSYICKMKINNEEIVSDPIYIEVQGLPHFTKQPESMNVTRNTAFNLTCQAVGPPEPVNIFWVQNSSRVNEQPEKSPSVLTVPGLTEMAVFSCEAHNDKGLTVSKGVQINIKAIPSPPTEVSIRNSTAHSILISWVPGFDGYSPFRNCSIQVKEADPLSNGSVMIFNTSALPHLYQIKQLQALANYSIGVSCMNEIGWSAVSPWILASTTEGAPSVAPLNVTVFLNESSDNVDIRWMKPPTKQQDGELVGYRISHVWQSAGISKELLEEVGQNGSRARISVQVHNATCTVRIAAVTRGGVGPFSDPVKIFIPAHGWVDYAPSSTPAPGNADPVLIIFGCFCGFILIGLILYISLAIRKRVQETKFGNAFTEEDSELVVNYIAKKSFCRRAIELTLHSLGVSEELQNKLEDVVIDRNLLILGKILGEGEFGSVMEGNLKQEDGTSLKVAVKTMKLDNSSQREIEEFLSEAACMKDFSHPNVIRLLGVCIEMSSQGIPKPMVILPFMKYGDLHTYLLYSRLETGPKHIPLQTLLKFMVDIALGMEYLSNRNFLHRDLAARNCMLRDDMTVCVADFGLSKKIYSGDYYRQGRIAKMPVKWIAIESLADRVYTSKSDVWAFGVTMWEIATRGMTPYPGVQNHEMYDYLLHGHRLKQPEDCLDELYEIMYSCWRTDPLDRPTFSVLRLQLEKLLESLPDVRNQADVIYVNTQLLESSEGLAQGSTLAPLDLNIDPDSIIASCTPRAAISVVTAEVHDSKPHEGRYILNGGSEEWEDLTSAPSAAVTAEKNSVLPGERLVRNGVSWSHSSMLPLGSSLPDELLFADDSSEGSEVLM
Description: (§1) 0.1 ul test compounds dissolved in DMSO were transferred from compound plates to white 384-well assay plates (Greiner [sequence] plates). […] The plate was protected from light and incubated at room temperature for 60 min.
The next experiment has as its system NK cells. Particulars: Paolino et al., 2014; cited from earlier work.
The test system of experiment [2] is tumor models with different histologies. Particulars: Paolino et al., 2014; cited from earlier work.
The target in experiment [3] is T1, c-Mer. To be noted: read-out: c-Mer IC50; HTRF, 60 min room temperature. On the technique in general: In TR-FRET formats the signal depends on donor and acceptor labels being close together.
Description: as §1
A further experiment has as its target JAK2 (Homo sapiens (Human), UniProt O60674). Particulars: ratio of IC50 at 1 mM ATP; cited from earlier work.

pIC50: −log10 of the molar value. Read-outs that look alike come from different tables or passages of the source. Where only a bound is given, the exact number is not on record here.

Phospho-Axl, sequence (P30530 26-894): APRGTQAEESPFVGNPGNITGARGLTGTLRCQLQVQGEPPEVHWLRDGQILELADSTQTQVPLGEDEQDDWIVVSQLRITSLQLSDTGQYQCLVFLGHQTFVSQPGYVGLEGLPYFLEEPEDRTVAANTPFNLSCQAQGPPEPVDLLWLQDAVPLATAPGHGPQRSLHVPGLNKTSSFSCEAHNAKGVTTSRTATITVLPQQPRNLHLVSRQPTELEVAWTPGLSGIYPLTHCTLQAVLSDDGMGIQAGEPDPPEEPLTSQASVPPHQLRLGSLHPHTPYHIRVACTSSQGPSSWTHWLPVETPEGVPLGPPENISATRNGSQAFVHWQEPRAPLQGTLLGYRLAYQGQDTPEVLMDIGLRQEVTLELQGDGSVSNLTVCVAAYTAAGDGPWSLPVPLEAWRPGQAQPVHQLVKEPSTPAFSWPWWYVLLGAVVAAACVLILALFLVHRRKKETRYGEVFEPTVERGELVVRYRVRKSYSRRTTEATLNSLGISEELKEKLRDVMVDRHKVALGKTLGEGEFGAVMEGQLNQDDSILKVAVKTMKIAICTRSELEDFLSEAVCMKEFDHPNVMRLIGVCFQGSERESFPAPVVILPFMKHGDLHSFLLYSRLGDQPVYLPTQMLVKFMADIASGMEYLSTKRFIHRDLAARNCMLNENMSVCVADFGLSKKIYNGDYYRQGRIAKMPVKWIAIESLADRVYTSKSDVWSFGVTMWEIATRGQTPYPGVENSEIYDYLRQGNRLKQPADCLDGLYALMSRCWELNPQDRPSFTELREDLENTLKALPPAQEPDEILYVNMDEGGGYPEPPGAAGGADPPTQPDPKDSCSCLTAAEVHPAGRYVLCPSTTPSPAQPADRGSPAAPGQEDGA
Tyro3, sequence (Q06418 41-890): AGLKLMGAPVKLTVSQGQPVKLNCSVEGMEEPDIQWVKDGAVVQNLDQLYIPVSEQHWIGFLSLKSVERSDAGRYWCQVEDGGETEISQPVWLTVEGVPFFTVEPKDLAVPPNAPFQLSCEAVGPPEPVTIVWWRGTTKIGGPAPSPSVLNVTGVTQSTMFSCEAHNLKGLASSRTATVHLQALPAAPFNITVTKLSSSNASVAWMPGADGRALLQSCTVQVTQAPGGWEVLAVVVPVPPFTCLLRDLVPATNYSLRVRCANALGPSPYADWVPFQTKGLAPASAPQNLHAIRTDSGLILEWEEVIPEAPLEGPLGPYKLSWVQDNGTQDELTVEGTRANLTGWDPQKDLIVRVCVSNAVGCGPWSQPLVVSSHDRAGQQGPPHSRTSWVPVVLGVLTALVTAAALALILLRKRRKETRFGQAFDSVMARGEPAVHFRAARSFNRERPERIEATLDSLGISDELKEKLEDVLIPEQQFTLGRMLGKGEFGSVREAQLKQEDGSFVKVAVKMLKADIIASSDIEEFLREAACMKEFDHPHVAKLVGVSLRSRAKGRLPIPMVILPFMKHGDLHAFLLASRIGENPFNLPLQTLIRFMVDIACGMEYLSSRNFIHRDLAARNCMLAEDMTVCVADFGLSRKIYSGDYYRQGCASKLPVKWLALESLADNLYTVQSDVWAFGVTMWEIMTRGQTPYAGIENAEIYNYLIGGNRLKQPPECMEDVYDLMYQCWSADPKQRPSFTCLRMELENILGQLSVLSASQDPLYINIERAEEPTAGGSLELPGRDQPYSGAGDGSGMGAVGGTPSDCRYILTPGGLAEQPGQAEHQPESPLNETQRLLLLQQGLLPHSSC
JAK2, sequence (O60674 whole entry, species assumed): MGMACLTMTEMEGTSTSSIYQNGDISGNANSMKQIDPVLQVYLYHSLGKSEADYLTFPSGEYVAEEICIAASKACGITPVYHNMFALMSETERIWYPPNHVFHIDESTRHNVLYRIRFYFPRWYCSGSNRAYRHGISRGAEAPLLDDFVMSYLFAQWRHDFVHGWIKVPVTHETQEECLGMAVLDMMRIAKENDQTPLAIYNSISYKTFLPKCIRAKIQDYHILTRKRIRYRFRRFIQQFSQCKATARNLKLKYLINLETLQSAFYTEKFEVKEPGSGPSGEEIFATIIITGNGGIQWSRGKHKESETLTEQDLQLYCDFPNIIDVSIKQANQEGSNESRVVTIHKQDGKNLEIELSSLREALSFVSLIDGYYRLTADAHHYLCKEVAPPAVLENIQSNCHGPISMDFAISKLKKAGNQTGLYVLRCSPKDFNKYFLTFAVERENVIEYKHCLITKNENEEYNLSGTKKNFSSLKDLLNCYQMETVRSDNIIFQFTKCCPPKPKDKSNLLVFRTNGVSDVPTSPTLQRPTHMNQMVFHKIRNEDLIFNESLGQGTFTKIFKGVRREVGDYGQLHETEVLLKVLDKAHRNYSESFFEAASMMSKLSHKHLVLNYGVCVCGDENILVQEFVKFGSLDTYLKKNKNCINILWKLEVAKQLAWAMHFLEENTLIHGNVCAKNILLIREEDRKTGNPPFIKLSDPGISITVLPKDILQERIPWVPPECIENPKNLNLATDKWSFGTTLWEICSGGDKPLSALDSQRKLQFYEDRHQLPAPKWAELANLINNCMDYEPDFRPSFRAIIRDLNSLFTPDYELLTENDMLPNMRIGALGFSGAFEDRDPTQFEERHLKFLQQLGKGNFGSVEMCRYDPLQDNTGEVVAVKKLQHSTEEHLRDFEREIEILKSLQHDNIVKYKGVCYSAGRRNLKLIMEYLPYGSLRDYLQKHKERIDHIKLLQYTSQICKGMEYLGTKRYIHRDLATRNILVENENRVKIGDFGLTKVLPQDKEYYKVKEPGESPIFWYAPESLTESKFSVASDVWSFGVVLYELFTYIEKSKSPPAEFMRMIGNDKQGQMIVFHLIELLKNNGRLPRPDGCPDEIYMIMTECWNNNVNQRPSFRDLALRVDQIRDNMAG
Description for Phospho-Axl: Autophosphorylation of Axl was carried out by incubating the recombinant Axl protein (Life Technologies, PV4275) in buffer containing 50 mM Tris, pH7.5, 0.2 mg/ml Axl, 5 mM ATP, 20 mM MgCl2 and 2 mM DTT at room temperature for 1 hour.
as §1
Description for Tyro3: as §1

Consider `Cc1ncoc1C(=O)NCC1(c2cccc(-c3ncnc4[nH]ccc34)c2)Cc2ccccc2C1` [Example 30], for which the pIC50 on Tyro3 (HTRF, 60 min room temperature) is below 5.52; against Phospho-Axl (HTRF, 60 min room temperature) it was 6.00 to 6.30; on c-Mer [1], 6.00 to 6.30.
`CCOc1cn(-c2ccc(F)cc2C)nc1C(=O)Nc1ccc(Oc2ccnc3cc(OC)c(OC)cc23)c(F)c1` [LDC1267]: in the experiment on NK cells, the NK cell activation result is “activates NK cells”. In addition, the “metastasis in tumor models” value in experiment [2] is reported as “blocks metastasis in tumor models with different histologies”.
As for `CCCCNc1nc(-c2cccc(C3(CN)Cc4ccccc4C3)c2)c2cc[nH]c2n1` [Example 80, 4-{3-[2-(Aminomethyl)-2,3-dihydro-1H-inden-2-yl]phenyl}-N-butyl-7H-pyrrolo[2,3-d]pyrimidin-2-amine], the pIC50 was above 6.30 on c-Mer [3]; above 6.30 on Tyro3; above 6.30 on Phospho-Axl (HTRF, 60 min room temperature).
In the case of `CNc1nc(-c2cccc(C3(CN)Cc4ccccc4C3)c2)c2cc[nH]c2n1` [Example 86, 4-{3-[2-(Aminomethyl)-2,3-dihydro-1H-inden-2-yl]phenyl}-N-methyl-7H-pyrrolo[2,3-d]pyrimidin-2-amine], the pIC50 on c-Mer [3] is above 6.30; on Tyro3 (HTRF, 60 min room temperature), 5.52 to 6.00; against Phospho-Axl (HTRF, 60 min room temperature), above 6.30.
`NCC1(c2cccc(-c3nc(NC4CCC4)nc4[nH]ccc34)c2)Cc2ccccc2C1` [Example 89, 4-{3-[2-(Aminomethyl)-2,3-dihydro-1H-inden-2-yl]phenyl}-N-cyclobutyl-7H-pyrrolo[2,3-d]pyrimidin-2-amine]: the pIC50 on c-Mer [3] is above 6.30; on Tyro3, above 6.30; on Phospho-Axl (HTRF, 60 min room temperature), above 6.30.
Consider `NCC1(c2cccc(-c3ncnc4[nH]ccc34)c2)CCc2ccccc2C1` (stereo not shown) [Example 99, 1-{2-[3-(7H-Pyrrolo[2,3-d]pyrimidin-4-yl)phenyl]-1,2,3,4-tetrahydronaphthalen-2-yl}methanamine], for which the pIC50 on c-Mer [3] and at Phospho-Axl was above 6.30 in each case.
`Cn1ccc(C(=O)NCC2(c3cccc(-c4ncnc5[nH]ccc45)c3)Cc3ccccc3C2)n1` [Example 29]: the pIC50 on Tyro3 (HTRF, 60 min room temperature) is below 5.52; on Phospho-Axl (HTRF, 60 min room temperature) it was 5.52 to 6.00; against c-Mer [1], 5.52 to 6.00.
Consider `NCC1(c2cc(-c3nc(Nc4cccc(CN5CCOCC5)c4)nc4[nH]ccc34)ccn2)Cc2ccccc2C1` [Example 95, 4-{2-[2-(Aminomethyl)-2,3-dihydro-1H-inden-2-yl]pyridin-4-yl}-N-[3-(morpholin-4-ylmethyl)phenyl]-7H-pyrrolo[2,3-d]pyrimidin-2-amine], for which the pIC50 was above 6.30 at c-Mer [3]; above 6.30 on Tyro3; above 6.30 against Phospho-Axl (HTRF, 60 min room temperature).
For the molecule `N#Cc1ccc2c(c1)CC(CN)(c1cccc(-c3ncnc4[nH]ccc34)c1)C2` (stereo not shown) [Example 49, 2-(Aminomethyl)-2-[3-(7H-pyrrolo[2,3-d]pyrimidin-4-yl)phenyl]indane-5-carbonitrile], the pIC50 on c-Mer [3] is above 6.30; at Tyro3 (HTRF, 60 min room temperature), 5.52 to 6.00; against Phospho-Axl (HTRF, 60 min room temperature), above 6.30.
With `COc1cnc2[nH]ccc2c1-c1ccnc(C2(CN)Cc3ccccc3C2)c1` [Example 96, 1-{2-[4-(5-Methoxy-1H-pyrrolo[2,3-b]pyridin-4-yl)pyridin-2-yl]-2,3-dihydro-1H-inden-2-yl}methanamine], the pIC50 at c-Mer [3], at Tyro3 and against Phospho-Axl was above 6.30 in each case.
In the case of `CCNc1nc(-c2cccc(C3(CN)Cc4ccccc4C3)c2)c2cc[nH]c2n1` [Example 87, 4-{3-[2-(Aminomethyl)-2,3-dihydro-1H-inden-2-yl]phenyl}-N-ethyl-7H-pyrrolo[2,3-d]pyrimidin-2-amine], the pIC50 is above 6.30 at c-Mer [3]; 5.52 to 6.00 at Tyro3 (HTRF, 60 min room temperature); above 6.30 on Phospho-Axl (HTRF, 60 min room temperature).
For `CC(C)Nc1nc(-c2cccc(C3(CN)Cc4ccccc4C3)c2)c2cc[nH]c2n1` [Example 88, 4-{3-[2-(Aminomethyl)-2,3-dihydro-1H-inden-2-yl]phenyl}-N-isopropyl-7H-pyrrolo[2,3-d]pyrimidin-2-amine], the pIC50 on c-Mer [3] was above 6.30; at Tyro3, below 5.52; against Phospho-Axl (HTRF, 60 min room temperature) it was above 6.30.
On to `Cn1nccc1C(=O)NCC1(c2cccc(-c3ncnc4[nH]ccc34)c2)Cc2ccccc2C1` [Example 32, 1-Methyl-N-({2-[3-(7H-pyrrolo[2,3-d]pyrimidin-4-yl)phenyl]-2,3-dihydro-1H-inden-2-yl}methyl)-1H-pyrazole-5-carboxamide], for which the pIC50 is below 5.52 on c-Mer [3]; below 5.52 at Tyro3; below 5.52 against Phospho-Axl (HTRF, 60 min room temperature).
Regarding `NCC1(n2cc(-c3ncnc4[nH]ccc34)ccc2=O)Cc2ccccc2C1` [Example 100, 1-[2-(Aminomethyl)-2,3-dihydro-1H-inden-2-yl]-5-(7H-pyrrolo[2,3-d]pyrimidin-4-yl)pyridin-2(1H)-one], the pIC50 on c-Mer [3] is above 6.30; against Phospho-Axl (HTRF, 60 min room temperature), above 6.30.
Take `NCC1(c2cccc(-c3ncnc4[nH]ccc34)c2)Cc2ccc(N3CC(F)C3)cc2C1` (stereo not shown) [Example 56, 1-{5-(3-Fluoroazetidin-1-yl)-2-[3-(7H-pyrrolo[2,3-d]pyrimidin-4-yl)phenyl]-2,3-dihydro-1H-inden-2-yl}methanamine]: the pIC50 at c-Mer [3] is above 6.30; on Tyro3 (HTRF, 60 min room temperature), 5.52 to 6.00; on Phospho-Axl (HTRF, 60 min room temperature), above 6.30.
In the case of `CCn1cnc(-c2ccc3c(c2)CC(CN)(c2cccc(-c4ncnc5[nH]ccc45)c2)C3)c1` (stereo not shown) [Example 76, 1-{5-(1-Ethyl-1H-imidazol-4-yl)-2-[3-(7H-pyrrolo[2,3-d]pyrimidin-4-yl)phenyl]-2,3-dihydro-1H-inden-2-yl}methanamine], the pIC50 on c-Mer [3] was above 6.30; at Tyro3 (HTRF, 60 min room temperature), 6.00 to 6.30; against Phospho-Axl it was above 6.30.
Turning to `NCC1(c2cc(-c3ccnc4[nH]ncc34)ccn2)Cc2ccccc2C1` [Example 97, 1-{2-[4-(1H-Pyrazolo[3,4-b]pyridin-4-yl)pyridin-2-yl]-2,3-dihydro-1H-inden-2-yl}methanamine], the pIC50 is 5.52 to 6.00 at Tyro3 (HTRF, 60 min room temperature); above 6.30 against Phospho-Axl (HTRF, 60 min room temperature); above 6.30 on c-Mer [1].
Take `Cn1cc(Nc2nc(-c3ccnc(C4(CN)Cc5ccccc5C4)c3)c3cc[nH]c3n2)cn1` [Example 94, 4-{2-[2-(Aminomethyl)-2,3-dihydro-1H-inden-2-yl]pyridin-4-yl}-N-(1-methyl-1H-pyrazol-4-yl)-7H-pyrrolo[2,3-d]pyrimidin-2-amine]: the pIC50 on c-Mer [3] was above 6.30; at Tyro3, above 6.30; against Phospho-Axl (HTRF, 60 min room temperature) it was above 6.30.
Take `N#CCC1(n2cc(-c3ncnc4[nH]ccc34)cn2)CN(C2CCN(C(=O)c3ccnc(C(F)(F)F)n3)CC2)C1` [Compound 9, [3-[4-(7H-pyrrolo[2,3-d]pyrimidin-4-yl)-1H-pyrazol-1-yl]-1-(1-{[2-(trifluoromethyl)pyrimidin-4-yl]carbonyl}piperidin-4-yl)azetidin-3-yl]acetonitrile]: on JAK2, the JAK2/JAK1 is listed as above 10.
For `NCC1(c2cccc(-c3nc(NC4CCCC4)nc4[nH]ccc34)c2)Cc2ccccc2C1` [Example 90, 4-{3-[2-(Aminomethyl)-2,3-dihydro-1H-inden-2-yl]phenyl}-N-cyclopentyl-7H-pyrrolo[2,3-d]pyrimidin-2-amine], the pIC50 on c-Mer [3] was above 6.30; on Tyro3 (HTRF, 60 min room temperature), 6.00 to 6.30; at Phospho-Axl (HTRF, 60 min room temperature) it was above 6.30.
Turning to `NCC1(c2cccc(-c3ncnc4[nH]ccc34)c2)Cc2ccc(CN3CC(O)C3)cc2C1` (stereo not shown) [Example 48, 1-((2-(3-(7H-Pyrrolo[2,3-d]pyrimidin-4-yl)phenyl)-2-(aminomethyl)-2,3-dihydro-1H-inden-5-yl)methyl)azetidin-3-ol], the pIC50 is below 5.52 on c-Mer [3]; 5.52 to 6.00 at Tyro3 (HTRF, 60 min room temperature); below 5.52 against Phospho-Axl (HTRF, 60 min room temperature).
For `NCC1(c2cccc(-c3nc(NC4CCCCC4)nc4[nH]ccc34)c2)Cc2ccccc2C1` [Example 91, 4-{3-[2-(Aminomethyl)-2,3-dihydro-1H-inden-2-yl]phenyl}-N-cyclohexyl-7H-pyrrolo[2,3-d]pyrimidin-2-amine], the pIC50 was above 6.30 on c-Mer [3]; 5.52 to 6.00 on Tyro3 (HTRF, 60 min room temperature); above 6.30 against Phospho-Axl (HTRF, 60 min room temperature).
